Measurements taken from article PMC4802308, “Integrating computational and chemical biology tools in the discovery of antiangiogenic small molecule ligands of FGF2 derived from endogenous inhibitors” (Scientific Reports, 2016).

How the values were obtained:
FGF2 [1] = biological target: T1, FGF2 (Homo sapiens, UniProt P09038); experiment: Competition with biotinylated recombinant TSP-1 domain (E123CaG1) for binding to FGF2 (DELFIA); details: for IC50: mean ± SE of 3 experiments; for fold more active than the initial query SM27 (competition IC50): vs SM27
T1 construct: purchased R&D Systems, obtained through the NCI-Biological Resources Branch

FGF2 [2] = biological target: T1, FGF2; experiment: SPR direct binding to sensorchip-immobilized FGF2; details: single site model, one experiment representative of two, read-out: Kd (dissociation constant) of FGF2/compound interaction
Experimental: SPR measurements were performed on a BIAcore X100 instrument (GE-Healthcare, WI). FGF2 was immobilized on a CM5 sensorchip (GE-Healthcare) as described, allowing the immobilization of 7,365 resonance units (RU) (410 fmol/mm^2 of FGF-2).
Suppl. Table S2. Determination of the affinity (Kd) of the FGF2/compound interactions by
Binding parameters were calculated by the non-linear curve fitting software package BIAevaluation
3.2 using a single site model with correction for mass transfer. Dissociation constant (Kd) values
were derived from the dissociation rate/association ratio. Only sensorgrams whose fitting gave
values of X2 lower than 10 were used {Khalifa, 2001 #213}.

FGF2 [3] = biological target: T1, FGF2; experiment: Competition with biotinylated recombinant TSP-1 domain (E123CaG1) for binding to FGF2 (DELFIA); details: 5 μM
Description: Of the identified hits, 23 (Fig. 1 and Suppl. Table S1), made available from the NCI (NIH), were subjected to experimental analysis of FGF2 binding. We used an indirect assay, based on the competition of the tested molecules with the recombinant TSP-1 type III domain for binding to FGF2, an approach previously employed to analyze the FGF2/SM27 binding.
Figure 2 FGF2-binding property of the selected hits, analyzed with an indirect assay, as ability to compete with the TSP-1 fragment E123CaG1 (comprising the type III repeats domain) for FGF2 binding, as described in Methods. Binding of the biotinylated recombinant domain to FGF2 in the presence or absence of each molecule (5 μM). Data are the percentage of control binding, mean and SE of 3 experiments performed in triplicate. *p < 0.05 compared to control (ANOVA followed by Bonferroni test).
DELFIA® Microtitration plates and reagents were from PerkinElmer. Plates were coated overnight at 4 °C with FGF2 (0.1 μg in 40 μl /well PBS). After washing, non-specific binding sites were saturated by a 30 minute incubation with PBS 1% BSA. The biotin-labeled recombinant TSP-1 fragment (10 nM) was added in 40 μl PBS 1% BSA with or without the indicated concentration of small molecules, and incubated for 3 h at room temperature. The plates were washed with PBS 0.1% BSA and incubated for 1 h with 100 μl/well Eu-Labeled Streptavidin 1:1000 at room temperature. After washing, plates were incubated with DELFIA® Enhancement Solution. Time resolved fluorescence was measured using a Victor[3] multilabel plate reader (PerkinElmer).

[4] = test system: FGF2-induced vessels sprouting, murine aortic rings; experiment: Aortic rings assay (FGF2-induced vessels sprouting, 3D Matrigel); set-up: species or system C57BL/6 mice; details: FGF2 30 ng/ml, small molecules 100 μM
Experimental: Figure 4 Biological activity of the selected hits. (A) Endothelial cell proliferation. BAEC were exposed to FGF2 (5 ng/ml) with increasing concentrations of molecules (3–80 μM). After 72 h, cells were stained and proliferation measured as absorbance. Data are the percentage of control proliferation (in absence of molecules), mean of value from 2 experiments performed in triplicate. (B–D) Aortic ring assay. Sections of murine aortas were embedded in Matrigel, in the presence of FGF2 (30 ng/ml) and the indicated small molecule. The formation of capillary structures sprouting from the rings was analyzed after 7 and 11 days as described in Methods, and the angiogenic response expressed as area covered by the sprouting structures (arbitrary units, mean and SE, n ≥ 6). (B) Antiangiogenic activity of the small molecules (100 μM). (C) Examples of time-dependent and dose-dependent effect of two compounds (SM.2–20 and SM.2–23), tested at 100 (diamond), 50 (circle) and 25 μM (triangle) compared to control (black squares). (D) Representative pictures of sprouting from control and SM.2–23 treated aortic sections. Original magnification, 20x. (E,F) Chorioallantoic membrane assay. FGF2 (200 ng) was administered in the absence or presence of the indicated compound (0.5 μg) on day 8 (n = 10). (E) Angiogenic response is evaluated 4 days later, and expressed as number of vessels entering the sponge (mean and SD). (F) Representative pictures are shown. Original magnification, 50x.
Thoracic aortas were removed from mice, cleaned of perivascular adipose tissue and cut into 1 mm segments. Matrigel (75 μl, BD Biosciences) was added to 96 well plates, and allowed to gellify at 37 °C for 30 min. Aortic sections were added to the wells, and covered with a second layer of Matrigel and DMEM 5% FCS containing FGF2 (30 ng/ml) and the indicated concentration of the compounds. The formation of capillary structures sprouting from the rings was analyzed after 4, 7 and 11 days with an inverted-phase contrast microscope (IX70; Olympus). Images were analyzed with ImageJ 1.48, and the angiogenic response expressed as area covered by the sprouting structures (arbitrary units), substracted the area of the aortic section.

[5] = Dynamic Light Scattering (photon correlation spectroscopy) and Zeta potential analysis of aggregates in solution; assay type: physicochemical; details: for Zeta potential: 1mg/ml solution, in mV (unit assumed)
Description: Binding of 5 water-soluble compounds to FGF2 was further analyzed by surface plasmon resonance (SPR). All the compounds were able to bind FGF2 immobilized to a SPR sensorchip (Suppl. Figure S2). […] In the context of biophysical characterization of compounds, we also tested the formation of aggregates in solution by representative compounds SM.2-16, SM.2-20 and SM.2-23, using Dynamic Light Scattering, which allows measuring nanoparticle size and polydispersion index (by Photocorrelation Spectroscopy) and surface charge (Zeta potential). For all the molecules, at concentrations between 0.03 and 1 mg/ml, the hydrodynamic radius ranged from 2.1 to 2.9 nm, with polydispersity index values between 0.5 and 0.6 (Table 2): no significant variation in the hydrodynamic radius was observed upon decreasing the concentrations, typically indicative of a non-aggregated state. Zeta potential values were strongly negative (indicative of molecule dissociation), ranging from −48 to −52 (Table 2). These findings therefore indicate that the solutions are fairly monodispersed, containing mainly single, charged molecules.
The Photon correlation spectroscopy (PCS) and the Zeta Potential (Zp) values were measured using the Zetasizer Nano ZS (Malvern, Worcestshire, UK), as detailed in Supplementary Material. Data were analyzed by Zetasizer software, version 7.11 (Malvern, Worcestshire, UK).
Photon correlation spectroscopy and Zeta Potential analysis. Photon correlation spectroscopy (PCS) and the Zeta Potential (Zp) values were measured using the Zetasizer Nano ZS (Malvern, Worcestshire, UK) with a fixed 173° scattering angle and a 633 -nm-helium-neon-laser. Data were analyzed by Zetasizer software, version 7.11 (Malvern, Worcestshire, UK). The set up temperature […]
Samples were dissolved in 1 ml of deionized water with 1% HBSS (Hanks’ Balanced Salt solution) to obtain a concentration of about 3mg/ml. For PCS experiments the solution was further diluted with HBSS to the indicated concentration, transferred to a disposable folded capillary cell at room temperature and analyzed 10’ minutes post-diluting.
For Zp measurements, 1mg/ml solution of the compounds were used. Due to the high conductivity of buffer solution precluding electrophoretic mobility measurements, about 3mg of samples were solubilized in 1% HBSS and diluted with suitable volume of deionized water. The solution, was transferred to a disposable folded capillary cell (Malvern, Worcestshire, UK) at room temperature and analyzed 10’ post-diluting. […]

T1 sequence (P09038 134-288 limits assumed): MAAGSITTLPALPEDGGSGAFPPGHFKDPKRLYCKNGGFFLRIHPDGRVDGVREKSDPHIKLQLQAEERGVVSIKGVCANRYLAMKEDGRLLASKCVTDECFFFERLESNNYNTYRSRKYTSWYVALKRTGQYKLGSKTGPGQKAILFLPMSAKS

IC50 (FGF2 [1])	Kd (FGF2 [2])	prevention of FGF2/TSP-1 binding (first screening) (FGF2 [3])	Hydrodynamic Radius ([5]; 0.03125 mg/ml)	PdI (polydispersion index) ([5]; 0.03125 mg/ml)	Hydrodynamic Radius ([5]; 0.0625 mg/ml)	PdI (polydispersion index) ([5]; 0.0625 mg/ml)	Hydrodynamic Radius ([5]; 0.125 mg/ml)	PdI (polydispersion index) ([5]; 0.125 mg/ml)	Hydrodynamic Radius ([5]; 0.25 mg/ml)	PdI (polydispersion index) ([5]; 0.25 mg/ml)	Hydrodynamic Radius ([5]; 0.5 mg/ml)	PdI (polydispersion index) ([5]; 0.5 mg/ml)	Hydrodynamic Radius ([5]; 1 mg/ml)	PdI (polydispersion index) ([5]; 1 mg/ml)	Zeta potential [5]	fold more active than the initial query SM27 (competition IC50) (FGF2 [1])	Compound	inhibition of FGF2-induced vessels sprouting [4]
3900 ± 230 nM	335 nM																O=C(Nc1ccc2cc(S(=O)(=O)O)cc(O)c2c1)Nc1ccc2cc(S(=O)(=O)O)cc(O)c2c1 [SM27, 6,6'-(carbonylbis(azanediyl))bis(4-hydroxynaphthalene-2-sulfonic acid), reference compound]	
		lost															O=C(Nc1ccc2cc(S(=O)(=O)O)cc(S(=O)(=O)O)c2c1)Nc1ccc2cc(S(=O)(=O)O)cc(S(=O)(=O)O)c2c1 [SM.2–11, 7,7'-(carbonylbis(azanediyl))bis(naphthalene-1,3-disulfonic acid)]	
		reduced activity															O=C(Nc1ccc2c(O)c(/N=N/c3ccccc3)c(S(=O)(=O)O)cc2c1)Nc1ccc2c(O)c(/N=N/c3ccccc3)c(S(=O)(=O)O)cc2c1 [SM.2–12, 4-hydroxy-7-(3-(5-hydroxy-6-((E)-phenyldiazenyl)-7-sulfonaphthalen-2-yl)ureido)-3-((E)-phenyldiazenyl)naphthalene-2-sulfonic acid]	
590 ± 90 nM	125 nM		2.140 nm	0.495	2.364 nm	0.742	2.149 nm	0.452	2.511 nm	0.663	2.265 nm	0.533	2.283 nm	0.695	−48.0	6–11 fold	COc1ccccc1/N=N/c1c(S(=O)(=O)O)cc2cc(NC(=O)Nc3ccc4c(O)c(/N=N/c5ccc6cc(S(=O)(=O)O)ccc6c5N)c(S(=O)(=O)O)cc4c3)ccc2c1O [SM.2–16, 3-((E)-(1-amino-6-sulfonaphthalen-2-yl)diazenyl)-4-hydroxy-7-(3-(5-hydroxy-6-((E)-(2-methoxyphenyl)diazenyl)-7-sulfonaphthalen-2-yl)ureido)naphthalene-2-sulfonic acid]	significantly inhibited
350 ± 30 nM																6–11 fold	CC(=O)Nc1ccc(/N=N/c2c(S(=O)(=O)O)cc3cc(NC(=O)Nc4ccc5c(O)c(/N=N/c6ccccc6)c(S(=O)(=O)O)cc5c4)ccc3c2O)cc1 [SM.2–19, 3-((E)-(4-acetamidophenyl)diazenyl)-4-hydroxy-7-(3-(5-hydroxy-6-((E)-phenyldiazenyl)-7-sulfonaphthalen-2-yl)ureido)naphthalene-2-sulfonic acid]	not
500 ± 110 nM	318 nM		2.186 nm	0.523	2.159 nm	0.658	2.172 nm	0.635	2.480 nm	0.789	2.571 nm	0.518	2.878 nm	0.595	−50.2	6–11 fold	Cc1ccccc1/N=N/c1c(S(=O)(=O)O)cc2cc(NC(=O)Nc3ccc4c(O)c(/N=N/c5ccc6cc(S(=O)(=O)O)ccc6c5)c(S(=O)(=O)O)cc4c3)ccc2c1O [SM.2–20, 4-hydroxy-7-(3-(5-hydroxy-7-sulfo-6-((E)-(6-sulfonaphthalen-2-yl)diazenyl)naphthalen-2-yl)ureido)-3-((E)-o-tolyldiazenyl)naphthalene-2-sulfonic acid]	significantly inhibited
420 ± 90 nM	39 nM															6–11 fold	Cc1cccc(/N=N/c2c(S(=O)(=O)O)cc3cc(NC(=O)Nc4ccc5c(O)c(/N=N/c6ccc7cc(S(=O)(=O)O)ccc7c6)c(S(=O)(=O)O)cc5c4)ccc3c2O)c1 [SM.2–22, 4-hydroxy-7-(3-(5-hydroxy-7-sulfo-6-((E)-(6-sulfonaphthalen-2-yl)diazenyl)naphthalen-2-yl)ureido)-3-((E)-m-tolyldiazenyl)naphthalene-2-sulfonic acid]	significantly inhibited
530 ± 110 nM	93 nM				2.370 nm	0.677	2.765 nm	0.557	2.951 nm	0.59	2.597 nm	0.539	2.877 nm	0.545	−52.2	6–11 fold	Cc1ccc(/N=N/c2c(S(=O)(=O)O)cc3cc(NC(=O)Nc4ccc5c(O)c(/N=N/c6ccc7cc(S(=O)(=O)O)ccc7c6)c(S(=O)(=O)O)cc5c4)ccc3c2O)c(C)c1 [SM.2–23, 3-((E)-(2,4-dimethylphenyl)diazenyl)-4-hydroxy-7-(3-(5-hydroxy-7-sulfo-6-((E)-(6-sulfonaphthalen-2-yl)diazenyl)naphthalen-2-yl)ureido)naphthalene-2-sulfonic acid]	significantly inhibited
